Legend:
washed human platelets [1] = experiment: Platelet ATP secretion, luminescence-based assay; type: cell-based; settings: for Platelet ATP secretion induced by peptide alone (basal, no agonist) / Effect on TRAP-induced platelet ATP secretion: 50 µM peptide, washed human platelets; for Platelet ATP secretion induced by peptide alone (basal, no agonist): 12 min at 37°C, without TRAP, n = 6, figure 2; for Effect on TRAP-induced platelet ATP secretion: preincubated 12 min at 37°C, then 4 µM TRAP for 3 min, luminescence arb. units, figures 2, 3c,d; for Effect on TRAP-induced platelet ATP secretion, alanine scan and control peptides of KEPLLP: 12.5 µM peptide, n = 4 donors, figure 5a,b
Procedure: Washed platelets (WPs) were prepared from blood samples collected from healthy donors who were free of medications known to affect platelet function for at least 10 days, as previously described. Written, informed consent was obtained from all participants in line with the Declaration of Helsinki. In brief, venous blood was drawn into 15% (v/v) of acid-citrate-dextrose (ACD) anticoagulant (38 mM citric acid anhydrous, 75 mM sodium citrate, 124 mM dextrose). Blood was centrifuged at 150g for 10 min and the platelet-rich plasma (PRP) was collected. PRP was further centrifuged at 720g for 10 min in the presence of 1 µM prostaglandin E1 (PGE1). The platelet pellet was resuspended in buffer A (6 mM dextrose, 130 mM NaCl, 9 mM NaHCO3, 10 mM sodium citrate, 10 mM Tris base, 3 mM KCl, 0.81 mM KH2PO4 and 0.9 mM MgCl2·6H2O, pH 7.4). The washed platelet count was adjusted to 3 × 10^8 platelets ml^−1 and supplemented with 1.8 mM CaCl2 immediately prior to use.
ATP secretion was measured using a luminescence-based assay, as previously described. Peptides, buffer or vehicle control, in a final volume of 10 µl, were dispensed into white 96-well plates. To this, 70 µl of WPs were gently added. Platelets were incubated with peptides at 37°C for 12 min (under shaking) in the Perkin Elmer 1420 96-well plate reader. Platelet agonist (TRAP; 4 µM; 10 µl) was then added to induce platelet ATP secretion. The suspension (peptide + platelets + agonist) was incubated for 3 min at 37°C with constant shaking. Finally, 10 µl of ATP detecting reagent chronolume (Labmedics, UK) was dispensed into each well and luminescence was measured using the Perkin Elmer 1420 96-well plate reader. Platelet ATP secretion response to peptides was measured in the presence and absence of agonist. Data were expressed as the amount of ATP secretion in luminescence arbitrary units (arb. units). Data are represented as the mean ± standard error mean (s.e.m.) of at least four independent donors.

washed human platelets [2] = experiment: Platelet ATP secretion, luminescence-based assay; type: cell-based; settings: TRAP 0.25 to 16 µM for 3 min at 37°C; n = 4 donors; figure S1

CCCCCCCCCCCCCCCC(=O)NCCCOCCOCCOCCCNC(=O)CCC(N)=O [palmitic acid connected to a Ttds linker, reference compound]
Platelet ATP secretion induced by peptide alone (basal, no agonist) (washed human platelets [1]): no effect | Effect on TRAP-induced platelet ATP secretion (washed human platelets [1]; n = 6 donors): no effect

CCCCCCCCCCCCCCCC(=O)O [palmitic acid, reference compound]
Platelet ATP secretion induced by peptide alone (basal, no agonist) (washed human platelets [1]): no effect | Effect on TRAP-induced platelet ATP secretion (washed human platelets [1]; n = 6 donors): no effect

EEPLLP [KEPLLP with lysine replaced with glutamic acid, palmitoylated and amidated]
Effect on TRAP-induced platelet ATP secretion, alanine scan and control peptides of KEPLLP (washed human platelets [1]; 4 µM TRAP): loss of inhibitory effect

EKPLLP [N-terminus reverse charge peptide of KEPLLP, palmitoylated and amidated]
Effect on TRAP-induced platelet ATP secretion, alanine scan and control peptides of KEPLLP (washed human platelets [1]; 4 µM TRAP): retained partial inhibitory activity

KEPAAP [KEPLLP with LL replaced with AA, palmitoylated and amidated]
Effect on TRAP-induced platelet ATP secretion, alanine scan and control peptides of KEPLLP (washed human platelets [1]; 4 µM TRAP): loss of peptide activity

KEPLAP [KEPLLP with one leucine replaced with alanine, palmitoylated and amidated]
Effect on TRAP-induced platelet ATP secretion, alanine scan and control peptides of KEPLLP (washed human platelets [1]; 4 µM TRAP): loss of peptide activity

KEPLLP [Non-palmitoylated KEPLLP, KEPLLP peptide with no palmitoylation]
Effect of peptide with no palmitoylation on TRAP-induced platelet ATP secretion (washed human platelets [1]; 50 µM peptide for 12 min at 37°C before 4 µM TRAP, n = 4, figure S4): failed to inhibit

KEPLLP [short motif truncated from E-cad 2, N-terminally palmitoylated and C-terminally amidated]
Effect of truncated E-cad 2 peptides on TRAP-induced platelet ATP secretion (washed human platelets [1]; 4 µM TRAP, n = 6 donors, figure 4a): most potent inhibitor | Lowest peptide concentration that significantly inhibited TRAP-induced platelet ATP secretion (washed human platelets [1]; dose-response study, 4 µM TRAP, n = 4, figure 4b): 12.5 µM

PLLPKE [randomly scrambled peptide of KEPLLP, palmitoylated and amidated]
Effect on TRAP-induced platelet ATP secretion, alanine scan and control peptides of KEPLLP (washed human platelets [1]; 4 µM TRAP): failed to inhibit

SFLLRN [TRAP, reference compound]
ATP secretion response at 4 µM TRAP relative to the maximal response (washed human platelets [1]; 4 µM TRAP, figure S1): approximately 80% | TRAP concentration at which ATP secretion is maximal (washed human platelets [2]): 16 µM

— article PMC6227957, “Peptides derived from cadherin juxtamembrane region inhibit platelet function” (Royal Society Open Science, 2018)
